Reference: PubChem BioAssay AID179 (DTP/NCI, 2004)
Activity calls are given as the source filed them.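 How the source made its calls: active means compounds giving half or more protection of infected cells from virus-caused growth loss, again on retest; inactive means the rest.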 Where a SMILES comes first, the peptide text is derived from it. [ ]: non-standard residue; d: D form. Phe(4-Cl) = N[CH](Cc1ccc(Cl)cc1)C(=O)O; 2Nal = N[CH](Cc1ccc2ccccc2c1)C(=O)O; 3Pal = N[CH](Cc1cccnc1)C(=O)O

System: CEM cells HIV-1 protection, formazan growth assay
Test: NCI AIDS Antiviral Assay
Settings: for IC50: measured here: growth of uninfected CEM cells
In short: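 Steps: treat uninfected and HIV-1-infected human CEM cells at five drug levels; quantify growth by soluble formazan; retest any compound reaching 50% protection; classify actives from the retest.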

| SMILES | EC50 | IC50 | outcome |
| --- | --- | --- | --- |
| CCC(C)C(NC(=O)C(CCCCN)NC(=O)CNC(=O)C(NC(=O)C(NC(=O)C(NC(=O)C(Cc1ccccc1)NC(=O)C(C)NC(=O)C(CCCNC(=N)N)NC(=O)CNC(=O)C1CCCN1C(=O)CNC(=O)C(CCCNC(=N)N)NC(=O)C(CCC(N)=O)NC(=O)C(NC(=O)C(CCCNC(=N)N)NC(=O)C(NC(=O)C(CO)NC(=O)C(CCCCN)NC(=O)C(CCCNC(=N)N)NC(=O)C(NC(=O)C(CC(N)=O)NC(=O)C(N)CC(=O)NC1OC(CO)C(O)C(O)C1NC(C)=O)C(C)O)C(C)CC)C(C)CC)C(C)C)C(C)O)C(C)CC)C(=O)NCC(N)=O (stereo not given) | > 50.1 µM | > 50.1 µM |  |
| CCOc1ccc2ccccc2c1NC1=NCCO1 | > 200 µM | 107 µM |  |
| Cn1c(=O)n(-c2c3ccccc3c(Cl)c3ccccc23)n(C(C)(C)C)c1=O | > 100 µM | > 100 µM |  |
| Cc1noc(NS(=O)(=O)c2ccc(NC(=O)c3ccc4[nH]c5ccccc5c(=O)c4c3)cc2)c1C | > 200 µM | 44.7 µM |  |
| c1ccc(N=c2sc3ccccc3nc2Nc2ccccc2)cc1 | > 200 µM | 123 µM |  |
| Cc1[nH]nc2c1NC(=O)OC(C)C2 (stereo not given) | 132 µM | 490 µM |  |
| O=C(/C=C/c1ccccc1)Nc1ccccc1SCCCCl | > 200 µM | 9.55 µM |  |
| CC(C)(C)c1cc(S(=O)(=O)O)c2oc(-c3ccccc3)cc(=O)c2c1 | > 200 µM | > 200 µM |  |
| O=C(OCCN=c1c2ccccc2ccc2ccccc12)c1ccccc1 | > 200 µM | 120 µM |  |
| Cn1cc2ccccc2c1-c1nc(F)nc(Oc2ccc3c(c2)CC[C@@H]2C3CC[C@@]3(C)C2CC[C@@H]3O)n1 (stereo not given in full) | > 5.5 µM | > 5.5 µM |  |
| COc1ccc2c(c1)CCCN2S(=O)(=O)c1ccccc1[N+](=O)[O-] | > 200 µM | 21.4 µM |  |
| CN(CCN(C)C(=O)CCn1ccc(=O)[nH]c1=O)C(=O)CCn1ccc(=O)[nH]c1=O | > 32.4 µM | > 32.4 µM |  |
| CC(=O)NC(Cc1ccc2ccccc2c1)C(=O)NC(Cc1ccc(Cl)cc1)C(=O)NC(Cc1cccnc1)C(=O)NC(CO)C(=O)NC(Cc1ccc(O)cc1)C(=O)NC(CCCN=C(N)N)C(=O)NC(CC(C)C)C(=O)NC(CCCN=C(N)N)C(=O)N1CCCC1C(=O)NC(C)C(N)=O (stereo not given) (Ac-[2Nal][Phe(4-Cl)][3Pal]SYRLRPA-NH2; configuration not given here) | > 61.7 µM | 15.1 µM |  |
| O=C(OC1=CCN(Br)C1=O)C1=C(O)C(=O)N(Br)C1 | > 200 µM | 32.4 µM |  |
| CCOC(=O)c1ccc(NC(=O)O/N=C(/Cl)CCl)cc1 | > 200 µM | 18.6 µM |  |
| CCC1(CC(=O)N(C)C)C=CCN(C(=O)Oc2ccccc2)C1 (stereo not given) | > 58.9 µM | > 58.9 µM |  |
| Cc1ccc(/C(C#N)=C/c2cccc([N+](=O)[O-])c2)cc1 | > 200 µM | > 200 µM |  |
| CC(=O)OCC(OC(C)=O)C(OC(C)=O)C(/C=N\Nc1nc2ccccc2c(=O)[nH]1)OC(C)=O (stereo not given) | > 200 µM | > 200 µM |  |
| CCCN1CC=C(c2cc(C(=O)OCC)[nH]c2-c2cc(C)no2)C1=O | > 200 µM | 107 µM |  |
| Cn1nc(-c2ccccc2)c(C(=O)/C=C/c2ccc(Cl)cc2)c(N2CCCC2)c1=O | > 15.1 µM | 10.7 µM |  |
| C/C(=N\N)C(CN(C)C)C(c1ccccc1)c1c(O)c2ccccc2oc1=O (stereo not given) | > 87.1 µM | > 87.1 µM |  |

| SMILES | EC50 | IC50 | outcome |
| --- | --- | --- | --- |
| Cc1ccc(-c2n[nH]c(CC#N)n2)cc1 | > 200 µM | > 200 µM |  |
| Cc1ccccc1NC(=O)c1c(C)oc2c1C(=O)c1ccccc1C2=O | > 39.8 µM | > 39.8 µM |  |
| c1ccc(Nc2nn3c(CCCCCCCCc4nnc5sc(Nc6ccccc6)nn45)nnc3s2)cc1 | > 200 µM | 39.8 µM |  |
| O=C(Nc1ccn(C2CC(O)C(COC(c3ccccc3)(c3ccccc3)c3ccccc3)O2)c(=O)n1)c1ccccc1 (stereo not given) | > 200 µM | 7.41 µM |  |
| Cc1cc2occ(C)c(=O)c2c2c1OC(C)(C)S2 | > 100 µM | 51.3 µM |  |
| CN1CCN(C)c2nc3ccccc3nc21 | 15.1 µM | 87.1 µM |  |
| CCP(=O)(OC)C1=CCN(C(=O)OCC[Si](C)(C)C)CC1 (stereo not given) | > 200 µM | > 200 µM |  |
| CC(C)(C)C(=O)OCOP(=O)(OCCOCn1cnc2c(=O)[nH]c(N)nc21)OCOC(=O)C(C)(C)C |  |  | inactive |
| Cc1cn([C@H]2CS[C@@H](CO)CO2)c(=O)[nH]c1=O |  |  | inactive |
| O=C(O)CN(CCN(CC(=O)O)CC(=O)O)CCN(CC(=O)O)CC(=O)O | > 200 µM | > 200 µM |  |
| Cc1nc(N)c2nc(Nc3ccccc3)sc2n1 | > 141 µM | 66.1 µM |  |
| COc1ccc2c(c1OC)C(=O)c1cnccc1C2=O | 60.3 µM | 132 µM |  |
| [O-]/[N+]1=[N+](\[O-])c2ccccc2CCCc2ccccc21 | > 269 µM | > 269 µM |  |
| Cc1cccc(NC(=O)Nc2ccccc2Cl)n1 | > 200 µM | > 200 µM |  |
| CCCCCCCCCCCC(=O)OCC1OC(OC)C(NC(=O)N(CCCl)N=O)C(O)C1O (stereo not given) | > 26.3 µM | 22.4 µM |  |
| Nn1c(CCCCCCCCc2nnc(-c3c(O)ccc4ccccc34)n2N)nnc1-c1c(O)ccc2ccccc12 | > 200 µM | > 200 µM |  |
| BrCCOc1ccc(-c2c3ccccc3c(-c3ccc(OCCBr)cc3)c3ccccc23)cc1 | > 100 µM | > 100 µM |  |
| C=CCCCCCCCCC(=O)NC(C)C(C)(C)C (stereo not given) | > 200 µM | 74.1 µM |  |
| O=C(O)CN(CC(=O)O)Cc1ccn(-c2cccc(-n3ccc(CN(CC(=O)O)CC(=O)O)n3)n2)n1 | > 200 µM | > 200 µM |  |
| Cc1ccc(-c2cc(-c3ccccc3)c(C#N)c(=O)[nH]2)cc1 | > 66.1 µM | > 66.1 µM |  |
| Cc1ccc(S(=O)(=O)OCCC2CN(C(=O)OCc3ccccc3)C(C)(C)O2)cc1 (stereo not given) | > 200 µM | 14.1 µM |  |

| SMILES | EC50 | IC50 | outcome |
| --- | --- | --- | --- |
| CCc1c(Cc2ccccc2)n(COCCCO)c(=O)[nH]c1=O | 7.08 µM | 10 µM |  |
| CN1CCN(Cc2ccccc2)CC1CC#N (stereo not given) | 1.95 µM | > 200 µM |  |
| COc1c(OC(C)=O)ccc(/C=C2\N=C(C)OC2=O)c1[N+](=O)[O-] |  |  | inactive |
| Cc1nc2c(c(N3CCN(C)CC3)n1)Cc1ccccc1-2 | > 200 µM | 41.7 µM |  |
| CC(C)(C)COC(=O)NC1CCC2CCCCC2C1 (stereo not given) | > 200 µM | > 200 µM |  |
| COc1cc(/C=C/c2ccc(OC)c(OC)c2)cc(OC2OC(CO)C(O)C(O)C2O)c1 (stereo not given) |  |  | inactive |
| Cn1nc(-c2ccccc2)c2c(/C=C/c3ccc(F)cc3)onc2c1=O | > 38.9 µM | > 38.9 µM |  |
| Cc1cc(=O)n2nc(CSc3nnc(N)s3)sc2n1 | > 200 µM | > 200 µM |  |
| NC1CC(=O)c2cc(Br)sc21 (stereo not given) | > 200 µM | > 200 µM |  |
| C1=CC2C(c3cn(-c4ccccc4)nc31)C1C2C2C=CC3C(C=C2)C31 (stereo not given) | > 3.24 µM | > 3.24 µM |  |
| O=C(CCc1ccccc1)NCCc1ccc(O)c(O)c1 | > 200 µM | 14.8 µM |  |
| Cc1c(N)c(C#N)c2n(C)c3ncccc3n2c1=O | > 200 µM | > 200 µM |  |
| CCOc1cc2c(cc1O)C=C[C@@H]1[C@@H]2CC[C@]2(C)[C@@H](O)CC[C@@H]12 | > 2 µM | 0.589 µM |  |
| CC(=O)OCC1OC(OC(C)=O)C(NC(=O)CI)C(OC(C)=O)C1OC(C)=O (stereo not given) | > 490 µM | 2.57 µM |  |
| CC(=O)O[C@H]1CC[C@H]2[C@@H]3CCC(C(C)=O)[C@H](C(=O)O)[C@H]3CC[C@]12C (stereo not given in full) | > 200 µM | > 200 µM |  |
| Cc1nc2cn3c(c2c(=O)[nH]1)CCCCC3 | > 200 µM | > 200 µM |  |
| O=C(O)CN1CCN(CC(=O)O)CCN(CC(=O)O)CCN(CC(=O)O)CC1 | > 200 µM | > 200 µM |  |
| COc1ccc(N=C/C=C/C(=C/COC(C)=O)OC(C)=O)cc1 | > 200 µM | 11.5 µM |  |
| O=C1Oc2ccccc2CC1C(=O)c1ccc([N+](=O)[O-])cc1 (stereo not given) | > 63.1 µM | 52.5 µM |  |
| O=c1oc2ccccc2c(O)c1/C=N/C(=S)Nc1ccccc1 | > 200 µM | 51.3 µM |  |
| Nc1ccn(CC(=O)NCCCCO)c(=O)n1 | > 200 µM | > 200 µM |  |

| SMILES | EC50 | IC50 | outcome |
| --- | --- | --- | --- |
| CN(C)C1=CC(=O)C(=O)c2cnc(N(C)C)cc21 |  |  | inactive |
| O=C(/C=C/c1cccs1)c1cccc(C(=O)/C=C/c2cccs2)n1 | > 200 µM | 110 µM |  |
| CC1(C)CC2C=C(C=O)C3(C=O)CC3(C)C2C1 (stereo not given) | > 3.47 µM | 0.501 µM |  |
| C[C@@]1(O)C2/C(=N/O)C3CC1(c1ccccc1)CC(/C3=N/O)C2c1ccccc1 (stereo not given in full) | > 100 µM | > 100 µM |  |
| CCCCCCCCCCCCCC(=O)OCC1OC(n2cc(F)c(=O)[nH]c2=O)C(N)C(OC(=O)CCCCCCCCCCCCC)C1O (stereo not given) | > 7.41 µM | > 7.41 µM |  |
| CCOC(=O)[C@H]1Nc2ccccc2C2c3ccccc3CC21 (stereo not given in full) | > 64.6 µM | > 64.6 µM |  |
| CCN(CC)C(C)C(=O)Nc1cccc(Cl)c1C (stereo not given) | > 50.1 µM | > 50.1 µM |  |
| CCOP(=O)(OCC)C(Cc1cn(S(=O)(=O)c2ccc(C)cc2)cn1)C(=O)O (stereo not given) | > 200 µM | > 200 µM |  |
| O/N=C1/C(=C/c2ccc(Cl)cc2)CCCC1C(NO)c1ccc(Cl)cc1 (stereo not given) | > 13.5 µM | > 13.5 µM |  |
| C[Si](C)(C)/C(Br)=C\CCN1C(=O)CCC1=O |  |  | inactive |
| Cc1nc(Nc2ccc([N+](=O)[O-])cc2)sc1C(=O)/C=C/c1ccc(N(C)C)cc1 | > 33.1 µM | 18.6 µM |  |
| Cc1c([N+](=O)[O-])c(=O)oc2c1ccc1occc(=O)c12 | > 132 µM | 117 µM |  |
| C=C1C(=O)O[C@H]2C3C(=C(C)CC[C@@H]12)C(=O)[C@@H]1OC31C (stereo not given in full) | > 200 µM | 0.676 µM |  |
| COc1cc2c(c(OC)c1OC)C(=O)[C@@H]1[C@H]2N1C(N)=O | > 200 µM | 4.17 µM |  |
| [Cu].c1ccc2c3[n-]c(c2c1)/N=c1\[n-]/c(c2ccccc12)=N\c1[n-]c(c2ccccc12)/N=c1\[n-]/c(c2ccccc12)=N\3 | > 200 µM | 51.3 µM |  |
| CC(C)c1ccccc1NC(=O)/C(Cl)=C1/Sc2ccccc2NC1=O | > 10 µM | > 10 µM |  |
| Cc1ccc(S(=O)(=O)N/N=c2/sc3ccccc3n2C)cc1 | > 200 µM | > 200 µM |  |
| CC(C)C(NC(=O)C(N)CCC(=O)O)C(=O)O (stereo not drawn) (H-Glu-Val-OH; configuration not given here) |  |  | inactive |
